Laboratory results: patent US20110009265A1, “Herbicidal Compositions Comprising Pyroxasulfone” (BASF SE, priority 2008, published 2011)
Read-outs that look alike come from different tables or passages of the source.

Experiments:
Avena fatua (AVEFA) = test: greenhouse pre-emergence herbicidal activity; format: in vivo; conditions: 50 g ai/ha, read-out: observed % activity
Description: (§1) For the pre-emergence treatment, directly after sowing the active compounds, which had been suspended or emulsified in water, were applied by means of finely distributed nozzles. The containers were irrigated gently to promote germination and growth and subsequently covered with transparent plastic hoods until plant had rooted. This cover caused uniform germination of the tests plants, unless this was adversely affected by active compounds.
(§2) The respective herbicides A and/or safener were formulated as 10% by weight strength suspension concentrate and introduced to the spray liquor with the amount of solvent system used for applying the active compound. Herbicide B and/or safener were used as commercially available formulations and introduced to the spray liquor with the amount of solvent system used for applying the active compound. In the examples, the solvent used was water.
(§3) Pendimethalin was used as a commercial aqueous suspension concentrate having an active ingredient concentration of 400 g/l.
(§4) The test period extended over 21 days. During this time, the plants were tended, and their response to the treatments with active compound was evaluated.
(§5) The evaluation for the damage caused by the chemical compositions was carried out using a scale from 0 to 100%, compared to the untreated control plants. Here, 0 means no damage and 100 means complete destruction of the plants.
(§6) The value E, which is to be expected if the activity of the individual compounds is just additive, was calculated using the method of S. R. Colby (1967) “Calculating synergistic and antagonistic responses of herbicide combinations”, Weeds 15, p. 22 ff.
(§7) where • X=effect in percent using herbicide A at an application rate a; • Y=effect in percent using herbicide B at an application rate b; • E=expected effect (in %) of A+B at application rates a+b.
(§8) If the value observed in this manner is higher than the value E calculated according to Colby, a synergistic effect is present.

Bromus inermis (BROIN) = test: greenhouse pre-emergence herbicidal activity; format: in vivo; conditions: read-out: observed % activity; for inhibition at 6.25 g/ha: 6.25 g ai/ha; for inhibition at 12.5 g/ha: 12.5 g ai/ha; for inhibition at 25 g/ha: 25 g ai/ha; for inhibition at 50 g/ha: 50 g ai/ha
Description: as §1, §2, §3, §4, §5, §6, §7, §8

[1] = tested on: Capsella bursa-pastoris (CAPBP); test: greenhouse pre-emergence herbicidal activity; format: in vivo; conditions: read-out: observed % activity; for inhibition at 25 g/ha: 25 g ai/ha; for inhibition at 50 g/ha: 50 g ai/ha
Description: as §1, §2, §3, §4, §5, §6, §7, §8

Galium aparine (GALAP) = test: greenhouse pre-emergence herbicidal activity; format: in vivo; conditions: read-out: observed % activity; for inhibition at 6.25 g/ha: 6.25 g ai/ha; for inhibition at 25 g/ha: 25 g ai/ha; for inhibition at 50 g/ha: 50 g ai/ha
Description: as §1, §2, §3, §4, §5, §6, §7, §8

[2] = tested on: Phalaris canariensis (PHACA); test: greenhouse pre-emergence herbicidal activity; format: in vivo; conditions: 6.25 g ai/ha, read-out: observed % activity
Description: as §1, §2, §3, §4, §5, §6, §7, §8

Thlaspi arvense (THLAR) [3] = test: greenhouse pre-emergence herbicidal activity; format: in vivo; conditions: read-out: observed % activity; for inhibition at 12.5 g/ha: 12.5 g ai/ha; for inhibition at 50 g/ha: 50 g ai/ha
Description: as §1, §2, §3, §4, §5, §6, §7, §8

Veronica persica (VERPE) = test: greenhouse pre-emergence herbicidal activity; format: in vivo; conditions: read-out: observed % activity; for inhibition at 6.25 g/ha: 6.25 g ai/ha; for inhibition at 12.5 g/ha: 12.5 g ai/ha; for inhibition at 25 g/ha: 25 g ai/ha; for inhibition at 50 g/ha: 50 g ai/ha
Description: as §1, §2, §3, §4, §5, §6, §7, §8

[4] = tested on: Alopecurus myosuroides (ALOMY); test: greenhouse post-emergence herbicidal activity; format: in vivo; conditions: 25 g ai/ha; for inhibition at 25 g/ha: Alopecurus myosuroides, read-out: observed % activity
Description: (§9) For the post-emergence treatment, the test plants were first grown to a height of 3 to 20 cm, depending on the plant habit, and only then treated. Here, the herbicidal compositions were suspended or emulsified in water as distribution medium and sprayed using finely distributing nozzles.
as §2, §3, §4, §5, §6, §7, §8

[5] = tested on: Amaranthus retroflexus (AMARE); test: greenhouse post-emergence herbicidal activity; format: in vivo; conditions: 13 g ai/ha, 20 DAT
Description: as §9, §2, §3, §4, §5, §6, §7, §8

[6] = tested on: Apera spica-venti (APESV); test: greenhouse post-emergence herbicidal activity; format: in vivo; conditions: 50 g ai/ha, 20 DAT
Description: as §9, §2, §3, §4, §5, §6, §7, §8

[7] = tested on: Capsella bursa-pastoris (CAPBP); test: greenhouse post-emergence herbicidal activity; format: in vivo; conditions: 25 g ai/ha, 20 DAT
Description: as §9, §2, §3, §4, §5, §6, §7, §8

Lamium purpureum (LAMPU) = test: greenhouse post-emergence herbicidal activity; format: in vivo; conditions: 50 g ai/ha, 20 DAT
Description: as §9, §2, §3, §4, §5, §6, §7, §8

[8] = tested on: Matricaria inermis (MATIN); test: greenhouse post-emergence herbicidal activity; format: in vivo; conditions: 50 g ai/ha, read-out: observed % activity
Description: as §9, §2, §3, §4, §5, §6, §7, §8

Stellaria media (STEME) = test: greenhouse post-emergence herbicidal activity; format: in vivo; conditions: 20 DAT
Description: as §9, §2, §3, §4, §5, §6, §7, §8

Thlaspi arvense (THLAR) [9] = test: greenhouse post-emergence herbicidal activity; format: in vivo; conditions: for inhibition at 100 g/ha: Thlaspi arvense, read-out: observed % activity
Description: as §9, §2, §3, §4, §5, §6, §7, §8

Viola arvensis (VIOAR) = test: greenhouse post-emergence herbicidal activity; format: in vivo; conditions: 25 g ai/ha, 20 DAT
Description: as §9, §2, §3, §4, §5, §6, §7, §8

harmful plants = conditions: known from Y. Yamaji et al., 2006; cited from earlier work

Cn1nc(C(F)(F)F)c(CS(=O)(=O)C2=NOC(C)(C)C2)c1OC(F)F [pyroxasulfone, 3-[5-(difluoromethoxy)-1-methyl-3-(trifluoromethyl)pyrazol-4-ylmethylsulfonyl]-4,5-dihydro-5,5-dimethyl-1,2-oxazole]
inhibition at 50 g/ha (Avena fatua (AVEFA); 192 h, 8 DAT): 70%
inhibition at 50 g/ha (Avena fatua (AVEFA); 480 h, 20 DAT): 85%
inhibition at 6.25 g/ha (Bromus inermis (BROIN); 192 h, 8 DAT): 40%
inhibition at 12.5 g/ha (Bromus inermis (BROIN); 192 h, 8 DAT): 50%
inhibition at 25 g/ha (Bromus inermis (BROIN); 192 h, 8 DAT): 50%
inhibition at 50 g/ha (Bromus inermis (BROIN); 192 h, 8 DAT): 60%
inhibition at 6.25 g/ha (Bromus inermis (BROIN); 480 h, 20 DAT): 35%
inhibition at 12.5 g/ha (Bromus inermis (BROIN); 480 h, 20 DAT): 60%
inhibition at 25 g/ha (Bromus inermis (BROIN); 480 h, 20 DAT): 60%
inhibition at 50 g/ha (Bromus inermis (BROIN); 480 h, 20 DAT): 75%
inhibition at 25 g/ha ([1]; 192 h, 8 DAT): 60%
inhibition at 50 g/ha ([1]; 192 h, 8 DAT): 60%
inhibition at 25 g/ha ([1]; 480 h, 20 DAT): 95%
inhibition at 50 g/ha ([1]; 480 h, 20 DAT): 95%
inhibition at 6.25 g/ha (Galium aparine (GALAP); 192 h, 8 DAT): 30%
inhibition at 25 g/ha (Galium aparine (GALAP); 192 h, 8 DAT): 60%
inhibition at 50 g/ha (Galium aparine (GALAP); 192 h, 8 DAT): 60%
inhibition at 6.25 g/ha (Galium aparine (GALAP); 480 h, 20 DAT): 20%
inhibition at 25 g/ha (Galium aparine (GALAP); 480 h, 20 DAT): 75%
inhibition at 50 g/ha (Galium aparine (GALAP); 480 h, 20 DAT): 80%
inhibition at 6.25 g/ha ([2]; 192 h, 8 DAT): 40%
inhibition at 6.25 g/ha ([2]; 480 h, 20 DAT): 40%
inhibition at 12.5 g/ha (Thlaspi arvense (THLAR) [3]; 192 h, 8 DAT): 40%
inhibition at 50 g/ha (Thlaspi arvense (THLAR) [3]; 192 h, 8 DAT): 60%
inhibition at 12.5 g/ha (Thlaspi arvense (THLAR) [3]; 480 h, 20 DAT): 30%
inhibition at 50 g/ha (Thlaspi arvense (THLAR) [3]; 480 h, 20 DAT): 80%
inhibition at 6.25 g/ha (Veronica persica (VERPE); 192 h, 8 DAT): 45%
inhibition at 12.5 g/ha (Veronica persica (VERPE); 192 h, 8 DAT): 60%
inhibition at 25 g/ha (Veronica persica (VERPE); 192 h, 8 DAT): 60%
inhibition at 50 g/ha (Veronica persica (VERPE); 192 h, 8 DAT): 60%
inhibition at 6.25 g/ha (Veronica persica (VERPE); 480 h, 20 DAT): 70%
inhibition at 12.5 g/ha (Veronica persica (VERPE); 480 h, 20 DAT): 90%
inhibition at 25 g/ha (Veronica persica (VERPE); 480 h, 20 DAT): 85%
inhibition at 50 g/ha (Veronica persica (VERPE); 480 h, 20 DAT): 90%
observed activity in % destruction 20 days after treatment ([4]; 20 DAT): 65%
inhibition at 25 g/ha ([4]; 168 h, 7 DAT): 25%
inhibition at 25 g/ha ([4]; 480 h, 20 DAT): 65%
observed activity in % destruction 20 days after treatment [5]: 45%
observed activity in % destruction 20 days after treatment [6]: 85%
observed activity in % destruction 20 days after treatment [7]: 35%
observed activity in % destruction 20 days after treatment (Lamium purpureum (LAMPU)): 70%
inhibition at 50 g/ha ([8]; 168 h, 7 DAT): 40%
inhibition at 50 g/ha ([8]; 480 h, 20 DAT): 0%
observed activity in % destruction 20 days after treatment (Stellaria media (STEME); 50 g ai/ha): 85%
observed activity in % destruction 20 days after treatment (Stellaria media (STEME); 100 g ai/ha): 95%
observed activity in % destruction 20 days after treatment (Thlaspi arvense (THLAR) [9]; 25 g ai/ha, 20 DAT): 50%
observed activity in % destruction 20 days after treatment (Thlaspi arvense (THLAR) [9]; 100 g ai/ha, 20 DAT): 80%
inhibition at 100 g/ha (Thlaspi arvense (THLAR) [9]; 168 h, 100 g ai/ha, 7 DAT): 70%
inhibition at 100 g/ha (Thlaspi arvense (THLAR) [9]; 480 h, 100 g ai/ha, 20 DAT): 80%
observed activity in % destruction 20 days after treatment (Viola arvensis (VIOAR)): 0%
post-emergence activity (harmful plants): only poor post-emergence activity
